Experimental data taken from patent publication US20260200849A1, “CATIONIC LIPIDS AND PREPARATION METHOD THEREOF” (RiboX Therapeutics HK Limited, priority 2024, published 2026).
Where “and” joins values, the source holds several entries; their conditions need not be identical. Equal entries are not always repeated. Where two headings read alike, the source gives them in different places.

Key:
[1] = LNP size and polydispersity index (PDI) by dynamic light scattering (Zetasizer); format: physicochemical; conditions: for Size (nm): Formulation No. 001 (Ionizable lipid:DSPC:cholesterol:DMG-PEG2000 = 50:10:38.5:1.5, N/P 6), RNA No. 331
Experimental: (§1) The LNP size and polydispersity index (PDI), determined by dynamic light scattering (DLS), and zeta potential were measured by a Zetasizer machine (Malvern). RNA concentration and encapsulation efficacy (EE %) were analyzed by the Quant-IT Ribogreen kit by calculating the percentage encapsulation at 100%—(RNA-LNPs/RNA-LNPs with Triton X-100).

[2] = RNA encapsulation efficacy (EE %) by Quant-IT Ribogreen kit; format: physicochemical; conditions: LNP
Experimental: as §1

Balb/c mice = test: In vivo expression by IV, 0.05 mg/kg luciferase RNA-LNPs, IVIS luminescence; conditions: IV 0.05 mg/kg, 24 h post injection, female Balb/c mice N=3, Formulation 001, RNA 331
Experimental: (§2) 7-8 week old, female Balb/c mice (N=3) were injected with 0.05 mg*kg−1 of RNA-LNPs encoding for firefly-luciferase by intravenous injection. At 24- and 72-hours post injection, animals were intraperitoneally injected with 15 mg/mi of Luciferin substrate and whole-body luminescence was determined by a bioluminescent in vivo imaging system (IVIS).
as §2, with “24-hours” for “24- and 72-hours”, “mg/ml” for “mg/mi”, “whole-body/liver/spleen” for “whole-body”

MCP-1 = test: In vivo tolerability by IV: serum MCP-1 by Luminex; design: species or system C57BL/6J mice; conditions: IV 1.0 mg/kg, male C57BL/6J mice N=3, Formulation 001, RNA 331
Experimental: (§3) 6-8 week old, male C57BL/6J mice (N=3) were injected with 1.0 mg*kg/1 of RNA-LNPs encoding for firefly-luciferase by intravenous injection. At 2- and 24-hours post injection, about 40 μL blood was harvested and immediately added to the procoagulant containing tube. Stand for 30 min at room temperature and then centrifuged at 2500 g×10 min to obtain serum. About 15 μL serum samples were aliquoted for cytokine (MCP-1 and IL-6) detection by Luminex (ProcartaPlex Mouse 2-plex, Thermo). PBS group as negative control.
as §3, with “mg*kg−1” for “mg*kg/1”

IL-6 = test: In vivo tolerability by IV: serum IL-6 by Luminex; design: species or system C57BL/6J mice; conditions: IV 1.0 mg/kg, male C57BL/6J mice N=3, Formulation 001, RNA 331
Experimental: as §3
as §3, with “mg*kg−1” for “mg*kg/1”

C57BL/6J mice = test: In vivo expression by IV, 1.0 mg/kg luciferase RNA-LNPs, whole-body and organ IVIS luminescence; conditions: IV 1.0 mg/kg, 24 h post injection, male C57BL/6J mice N=3, Formulation 001, RNA 331
Experimental: (§4) 6-8 week old, male C57BL/6J mice (N=3) were injected with 1.0 mg*kg−1 of RNA-LNPs encoding for firefly-luciferase by intravenous injection. At 24-hours post injection, animals were intraperitoneally injected with 15 mg/ml of Luciferin substrate and whole-body/liver/spleen/kidney/small intestine/large intestine luminescence were determined by a bioluminescent in vivo imaging system (IVIS).
as §4, with “mg/nil” for “mg/ml”

[3] = In vivo lipid metabolism by IV: ionizable lipid concentration in plasma and liver by LC-MS/MS; design: species or system Sprague-Dawley (SD) rats; conditions: IV 0.15 mg/kg RNA-LNPs (hEPO), male SD rats, individual animals N=3
Experimental: In Vivo Lipid Metabolism by IV 7-8 week old, male Sprague-Dawley (SD) rats (N=3) were injected with 0.15 mg*kg−1 of RNA-LNPs encoding for hEPO by intravenous injection. At 1-/6-/96-/168-hours post injection, about 100 μL blood will be harvested and immediately added to the EDTAK2 containing tube. Place on wet ice and then centrifuged at 3000 g×5 min to obtain plasma. 30 μL plasma will be aliquoted to the 1.5 mL tubes. At terminal 6-/168-hours post injection, the rats will be euthanized with CO2, hemorrhaged immediately with cardiac puncture, respectively. The livers were harvested, weighed and washed with saline, then put into 50 ml centrifuge tube placed in liquid nitrogen, then transferred into wet ice, and finally stored at −80° C. immediately. Both plasma and liver samples were used for ionizable lipid concentration quantification by LC-MS/MS. The lower limit of quantitation (LLOQ) is 1 ng/mL in plasma or 11 ng/g in liver. BQL—Below the lower limit of quantitation (LLOQ).

[4] = Formulation No. 001, RNA No. 019 (hEPO)
[5] = Formulation No. 001, RNA No. 331
[6] = male, Sprague-Dawley, rat, liver, iv, 0.15 mg/kg, 6 h post injection, read-out: Liver (ng/g), ionizable lipid concentration
[7] = male, Sprague-Dawley, rat, plasma, iv, 0.15 mg/kg, 1 h post injection
[8] = male, Sprague-Dawley, rat, plasma, iv, 0.15 mg/kg, 6 h post injection, read-out: Plasma (ng/mL), ionizable lipid concentration

PDI [1, 4]	Size [1, 4]	PDI [1, 5]	Size [1, 5]	EE (%) [2, 4]	EE (%) [2, 5]	Plasma (ng/mL), ionizable lipid concentration ([3]; 1 h post injection)	SMILES	Liver (p/s) (Mean) (Balb/c mice)	Spleen (p/s) (Mean) (Balb/c mice)	Whole body (p/s) (Mean) (Balb/c mice)	MCP-1 at 2 h (MCP-1)	MCP-1 at 24 h (MCP-1)	IL-6 at 2 h (IL-6)	IL-6 at 24 h (IL-6)	Kidney (p/s) (C57BL/6J mice)	Large intestine (p/s) (C57BL/6J mice)	Liver (p/s) (C57BL/6J mice)	Small intestine (p/s) (C57BL/6J mice)	Spleen (p/s) (C57BL/6J mice)	Whole body (p/s) (C57BL/6J mice)	also measured
0.04	57.55 nm	0.05	57.55 nm	96.60%	93.55%	2558 ng/mL and 2938 ng/mL	CCCCCCCCCCC(CCCCCCCC)COC(=O)CCCCCOC(=O)NC(COC(=O)NCCN1CCCCCC1)C(=O)OCCCCCC(=O)OCC(CCCCCCCC)CCCCCCCCCC (centres unmarked) [Lipid 1021]	1.19E+08 p/s	5.32E+07 p/s	8.26E+08 p/s	1560 pg/mL	166 pg/mL	28.6 pg/mL	0.639 pg/mL	5.69E+07 p/s	1.91E+08 p/s	1.88E+10 p/s	1.60E+09 p/s	6.45E+08 p/s	1.48E+10 p/s	Liver (ng/g), ionizable lipid concentration ([3]; 6 h post injection): 33582 ng/g and 37570 ng/g; Plasma (ng/mL), ionizable lipid concentration ([3]; 6 h post injection): 976 ng/mL and 1347 ng/mL; Plasma (ng/mL), ionizable lipid concentration ([3]; 96 h post injection): 23.9 ng/mL and 5.16 ng/mL and 9.41 ng/mL; Liver (ng/g), ionizable lipid concentration ([3]; 168 h post injection): 3103 ng/g and 1228 ng/g and 1508 ng/g; Plasma (ng/mL), ionizable lipid concentration ([3]; 168 h post injection): 6.98 ng/mL and 1.89 ng/mL; concentration at 6 h [3, 6]: 48100 ng/g; concentration at 1 h [3, 7]: 3280 ng/mL; concentration at 6 h [3, 8]: 1480 ng/mL
		0.04			96.51%		CCCCCCCCCCC(CCCCCCCC)COC(=O)CCCCCOC(=O)NC(COC(=O)NCCN1CCCCCC1)C(=O)OCCCCCCCC(=O)OC(CCCCCCCC)CCCCCCCC (centres unmarked) [Lipid 1072]				554 pg/mL	35.1 pg/mL	2.07 pg/mL	0.947 pg/mL	8.41E+06 p/s	1.22E+07 p/s	1.40E+10 p/s	2.07E+08 p/s	1.95E+08 p/s	6.81E+09 p/s	Size (nm) [1]: 52.67 nm
		0.07	69.70 nm		97.70%		CCCCCCCCCCC(CCCCCCCC)COC(=O)CCCCCOC(=O)NC(COC(=O)NCCN(C)C)C(=O)OCCCCCC(=O)OCC(CCCCCCCC)CCCCCCCCCC (centres unmarked) [Lipid 1017]	3.91E+07 p/s	1.30E+07 p/s	2.45E+08 p/s	2430 pg/mL	94.6 pg/mL	12.8 pg/mL	0.792 pg/mL	9.00E+06 p/s	2.09E+07 p/s	9.32E+08 p/s	1.93E+08 p/s	4.32E+08 p/s	1.13E+09 p/s	
		0.08			90.29%		CCCCCCCC/C=C\CCCCCCCCOC(=O)NC(COC(=O)NCCN1CCCCCC1)C(=O)OCCCCCC(=O)OCC(CCCCCCCC)CCCCCCCCCC (centres unmarked) [Lipid 1041]				1180 pg/mL	68.1 pg/mL	51.2 pg/mL	4.53 pg/mL	6.14E+06 p/s	1.74E+07 p/s	1.08E+09 p/s	1.96E+08 p/s	1.93E+08 p/s	8.03E+08 p/s	Size (nm) [1]: 59.33 nm
0.06	55.95 nm	0.01	57.55 nm	97.29%	94.34%	2412 ng/mL and 2622 ng/mL	CCCCCCCCCCC(CCCCCCCC)COC(=O)CCCCCOC(=O)NC(COC(=O)NCCN1CCCCC1)C(=O)OCCCCCC(=O)OCC(CCCCCCCC)CCCCCCCCCC (centres unmarked) [Lipid 1020]	1.38E+08 p/s	2.67E+07 p/s	4.91E+08 p/s	1930 pg/mL	180 pg/mL	90.5 pg/mL	1.07 pg/mL	5.29E+07 p/s	2.16E+08 p/s	1.90E+10 p/s	1.62E+09 p/s	1.14E+09 p/s	9.25E+09 p/s	Liver (ng/g), ionizable lipid concentration ([3]; 6 h post injection): 38824 ng/g and 43259 ng/g; Plasma (ng/mL), ionizable lipid concentration ([3]; 6 h post injection): 1241 ng/mL and 1471 ng/mL; Plasma (ng/mL), ionizable lipid concentration ([3]; 96 h post injection): 31.2 ng/mL and 26.1 ng/mL; Liver (ng/g), ionizable lipid concentration ([3]; 168 h post injection): 2432 ng/g and 1960 ng/g; Plasma (ng/mL), ionizable lipid concentration ([3]; 168 h post injection): 7.35 ng/mL and 11.3 ng/mL and 4.48 ng/mL; concentration at 6 h [3, 6]: 36500 ng/g; concentration at 168 h ([3]; male, Sprague-Dawley, rat, liver, iv, 0.15 mg/kg, 168 h post injection, read-out: Liver (ng/g), ionizable lipid concentration): 2890 ng/g; concentration at 1 h [3, 7]: 2420 ng/mL; concentration at 6 h [3, 8]: 1210 ng/mL; concentration at 96 h ([3]; male, Sprague-Dawley, rat, plasma, iv, 0.15 mg/kg, 96 h post injection): 33.6 ng/mL
		0.10	68.78 nm		97.11%		CCCCCCCCCCC(CCCCCCCC)COC(=O)CCCCCOC(=O)NC(COC(=O)NCCN1CCCC1)C(=O)OCCCCCC(=O)OCC(CCCCCCCC)CCCCCCCCCC (centres unmarked) [Lipid 1019]	3.60E+07 p/s	2.21E+07 p/s	2.46E+08 p/s	3720 pg/mL	401 pg/mL	404 pg/mL	2.02 pg/mL	1.46E+07 p/s	2.12E+08 p/s	1.20E+09 p/s	5.41E+08 p/s	4.98E+08 p/s	2.49E+09 p/s	
